Experimental data published in patent US20180071317A1, “USE OF AGENTS THAT ALTER THE PERITUMORAL ENVIRONMENT FOR THE TREATMENT OF CANCER” (SERVICIO ANDALUZ DE SALUD, priority 2011, published 2018).

Columns and labels:
Format in all cases: cell-based
[1] = tested on: fibroblasts (PHF) co-cultured with tumor cells of human colon adenocarcinoma (SW-403); assay: Marker expression (IHC) in PHF co-cultured with SW-403 tumor cells; details: co-culture with SW-403; SP 1 μM; 48 h
Protocol: All cultures were maintained 48 hours, following which the same cells were included in paraffin blocks for subsequent analysis of the expression of different markers by immunohistochemistry (see Example 1). The primary antibodies used to perform immunohistochemical assays and their concentration are detailed in Example 2. All experiments were carried out sixfold. Analyzed markers in fibroblast cells (stromal cells) were: TGF-α, TGF-β1, TGF-β2, TGF-β3, SPARC, MMP-3, MMP-7, MMP-9, MMP-11, MMP-13 and MMP-14.

[2] = tested on: fibroblasts (PHF) co-cultured with tumor cells of human breast carcinoma (MCF-7); assay: Marker expression (IHC) in PHF co-cultured with MCF-7 tumor cells; details: co-culture with MCF-7; SP 1 μM; 48 h;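 also: value is the percentage of fibroblasts positive for each marker, with fibroblasts cultured alone as reference, grown in fresh plasma from a healthy donor, six replicates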
Protocol: (§1) All cultures were maintained 48 hours, following which the same cells were included in paraffin blocks for subsequent analysis of the expression of different markers by immunohistochemistry (see Example 1). […] All experiments were carried out sixfold. Analyzed markers in fibroblast cells (stromal cells) were: TGF-α, TGF-β1, TGF-β2, TGF-β3, SPARC, MMP-3, MMP-7, MMP-9, MMP-11, MMP-13 and MMP-14.

[3] = tested on: fibroblasts (PHF) co-cultured with tumor cells of human cervix carcinoma (KB); assay: Marker expression (IHC) in PHF co-cultured with KB tumor cells; details: co-culture with KB; SP 1 μM; 48 h;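 also: percentage of PHF fibroblasts showing expression of each marker, cultured in fresh blood plasma from a healthy human donor, six replicates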
Protocol: as §1

[4] = tested on: fibroblasts (PHF) co-cultured with tumor cells in human prostate carcinoma (22Rv1); assay: Marker expression (IHC) in PHF co-cultured with 22Rv1 tumor cells; details: co-culture with 22Rv1; SP 1 μM; 48 h;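 also: cultures grown on fresh plasma from a healthy donor, each experiment run sixfold, values give the percentage of fibroblasts positive for the given marker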
Protocol: as §1

[5] = tested on: fibroblasts (PHF) co-cultured with human glioma tumor cells (GAMG); assay: Marker expression (IHC) in PHF co-cultured with GAMG tumor cells; details: co-culture with GAMG; SP 1 μM; 48 h;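 also: percentage of PHF fibroblasts positive for each marker, cultured in fresh plasma from a healthy donor, six replicates, with fibroblasts cultured alone as reference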
Protocol: as §1

[6] = tested on: fibroblasts (PHF) co-cultured with human neuroblastoma tumor cells (KELLY); assay: Marker expression (IHC) in PHF co-cultured with KELLY tumor cells; details: PHF co-cultured with KELLY + SP;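 also: Co-cultures grown on healthy-donor human blood plasma, run in six replicates, value is percentage of fibroblasts positive for each marker, compared with fibroblasts cultured alone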
Protocol: as §1

[7] = tested on: macrophages in co-culture with cells isolated from primary human tumors; assay: Marker expression (IHC) in macrophages co-cultured with primary human tumor cells (colon, breast, ovarian, lung carcinoma, melanoma); details: SP 1 μM;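 also: macrophages came from pleural or peritoneal washings of the patient who also supplied the tumor cells, and both were co-cultured on fresh blood plasma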
Protocol: To check that the interaction of tumor cells obtained directly from primary human immune cell/inflammatory (macrophages) cells, obtained from the patient stimulate secretion of substances by these macrophages recognized as important in survival of both cell types and in the progression of tumor cells, co-cultures were performed on fresh blood plasma, immune cell/inflammatory (macrophages) with tumor cells derived from primary tumors. All obtained from the same patient, to build an experimental model similar to human physiology.
Macrophages were obtained from washing or pleural or peritoneal from the same patient from which the primary tumor cells were obtained in each case.

[8] = co-culture with cells isolated from breast carcinoma
[9] = co-culture with cells isolated from colon carcinoma
[10] = co-culture with cells isolated from lung carcinoma
[11] = co-culture with cells isolated from melanoma
[12] = co-culture with cells isolated from ovarian carcinoma

CSCC[C@H](NC(=O)[C@H](CC(C)C)NC(=O)CNC(=O)[C@H](Cc1ccccc1)NC(=O)[C@H](Cc1ccccc1)NC(=O)[C@H](CCC(N)=O)NC(=O)[C@H](CCC(N)=O)NC(=O)[C@@H]1CCCN1C(=O)[C@H](CCCCN)NC(=O)[C@@H]1CCCN1C(=O)[C@@H](N)CCCNC(=N)N)C(N)=O [SP]
PHF cells expressing MMP-3 [1]: 46.4 ± 1.9% | PHF cells expressing MMP-7 [1]: 53.1 ± 2.2% | PHF cells expressing MMP-9 [1]: 55.7 ± 1.6% | PHF cells expressing MMP-11 [1]: 26.4 ± 2.6% | PHF cells expressing MMP-13 [1]: 46.5 ± 3.7% | PHF cells expressing MMP-14 [1]: 51.3 ± 3.6% | PHF cells expressing SPARC [1]: 48 ± 1.6% | PHF cells expressing TGF-α [1]: 42.5 ± 1% | PHF cells expressing TGF-β1 [1]: 34.3 ± 1.2% | PHF cells expressing TGF-β2 [1]: 42.5 ± 1.5% | PHF cells expressing TGF-β3 [1]: 44 ± 1.9% | PHF cells expressing MMP-3 [2]: 44.5 ± 1.8% | PHF cells expressing MMP-7 [2]: 57.1 ± 2.7% | PHF cells expressing MMP-9 [2]: 55.3 ± 1.7% | PHF cells expressing MMP-11 [2]: 25.4 ± 2.7% | PHF cells expressing MMP-13 [2]: 46 ± 3.6% | PHF cells expressing MMP-14 [2]: 48.2 ± 3.5% | PHF cells expressing SPARC [2]: 49 ± 1.5% | PHF cells expressing TGF-α [2]: 42.6 ± 1.1% | PHF cells expressing TGF-β1 [2]: 43.2 ± 1% | PHF cells expressing TGF-β2 [2]: 42.6 ± 2.1% | PHF cells expressing TGF-β3 [2]: 46 ± 1.7% | PHF cells expressing MMP-3 [3]: 42.6 ± 1.8% | PHF cells expressing MMP-7 [3]: 57.5 ± 5.8% | PHF cells expressing MMP-9 [3]: 57.3 ± 6.4% | PHF cells expressing MMP-11 [3]: 36.4 ± 6.8% | PHF cells expressing MMP-13 [3]: 45.4 ± 3.7% | PHF cells expressing MMP-14 [3]: 51.6 ± 3.5% | PHF cells expressing SPARC [3]: 46.9 ± 1.6% | PHF cells expressing TGF-α [3]: 33.4 ± 1.1% | PHF cells expressing TGF-β1 [3]: 34.5 ± 1.1% | PHF cells expressing TGF-β2 [3]: 45.6 ± 1.1% | PHF cells expressing TGF-β3 [3]: 44.5 ± 3.1% | PHF cells expressing MMP-3 [4]: 43.3 ± 2.7% | PHF cells expressing MMP-7 [4]: 54.3 ± 4.8% | PHF cells expressing MMP-9 [4]: 51.4 ± 2.4% | PHF cells expressing MMP-11 [4]: 28.5 ± 3.8% | PHF cells expressing MMP-13 [4]: 46 ± 2.5% | PHF cells expressing MMP-14 [4]: 49 ± 3.5% | PHF cells expressing SPARC [4]: 48.1 ± 3.2% | PHF cells expressing TGF-α [4]: 41.4 ± 2.1% | PHF cells expressing TGF-β1 [4]: 34.5 ± 3.1% | PHF cells expressing TGF-β2 [4]: 42.5 ± 2.1% | PHF cells expressing TGF-β3 [4]: 4.11 ± 3.6% | PHF cells expressing MMP-3 [5]: 43.4 ± 2.8% | PHF cells expressing MMP-7 [5]: 57.1 ± 3.8% | PHF cells expressing MMP-9 [5]: 52.3 ± 2.4% | PHF cells expressing MMP-11 [5]: 27.5 ± 3.8% | PHF cells expressing MMP-13 [5]: 45.4 ± 3.6% | PHF cells expressing MMP-14 [5]: 49.3 ± 3.5% | PHF cells expressing SPARC [5]: 51.2 ± 3.3% | PHF cells expressing TGF-α [5]: 42.5 ± 3.1% | PHF cells expressing TGF-β1 [5]: 33.6 ± 3.1% | PHF cells expressing TGF-β2 [5]: 40.7 ± 2.1% | PHF cells expressing TGF-β3 [5]: 51 ± 1.6% | cells expressing MMP-3 [6]: 45.4 ± 4.7% | cells expressing MMP-7 [6]: 57.4 ± 3.8% | cells expressing MMP-9 [6]: 51.2 ± 2.4% | cells expressing MMP-11 [6]: 29.4 ± 4.8% | cells expressing MMP-13 [6]: 44.3 ± 4.5% | cells expressing MMP-14 [6]: 51.2 ± 4.2% | cells expressing SPARC [6]: 46.5 ± 4.2% | cells expressing TGF-α [6]: 42.4 ± 3.1% | cells expressing TGF-β1 [6]: 36.5 ± 2.1% | cells expressing TGF-β2 [6]: 42.2 ± 2.2% | cells expressing TGF-β3 [6]: 43.4 ± 2.3% | Percentage of macrophages which expressed EGF [7, 8]: 41.6 ± 4.2% | Percentage of macrophages which expressed MMP-9 [7, 8]: 39.5 ± 3.2% | Percentage of macrophages which expressed VEGF [7, 8]: 37.4 ± 4.2% | Percentage of macrophages which expressed EGF [7, 9]: 41.4 ± 4.2% | Percentage of macrophages which expressed MMP-9 [7, 9]: 39.5 ± 3.5% | Percentage of macrophages which expressed VEGF [7, 9]: 38.5 ± 2.9% | Percentage of macrophages which expressed EGF [7, 10]: 38.4 ± 2.9% | Percentage of macrophages which expressed MMP-9 [7, 10]: 39.4 ± 3.7% | Percentage of macrophages which expressed VEGF [7, 10]: 37.4 ± 4.2% | Percentage of macrophages which expressed EGF [7, 11]: 41.9 ± 3.2% | Percentage of macrophages which expressed MMP-9 [7, 11]: 39.5 ± 5.3% | Percentage of macrophages which expressed VEGF [7, 11]: 35.4 ± 4.4% | Percentage of macrophages which expressed EGF [7, 12]: 41.5 ± 4.2% | Percentage of macrophages which expressed MMP-9 [7, 12]: 39.5 ± 3.2% | Percentage of macrophages which expressed VEGF [7, 12]: 37.4 ± 4%
